Entries after “also recorded” stand apart in the source; their conditions may differ. Like-named read-outs stand apart in the source and are kept apart here.
Key:
human AChE = target: T1, human AChE (Homo sapiens, UniProt P22303); experiment: Reversible inhibition of AChE (Ellman's procedure, Hunter–Downs evaluation); assay type: biochemical; conditions: for Ki: Ki ± standard error, 0.1, 0.2, 0.35 and 0.5 mM substrate ATCh, 25 °C, pH 7.4; for Ki (AChE)/Ki (BChE): selectivity ratio
T1 construct: The sources of human AChE and BChE were native erythrocytes and plasma, respectively; from tissue; host or cells: human erythrocytes from venous blood of a healthy volunteer
T1 sequence (P22303 32-617 isoform P22303-2 limits assumed): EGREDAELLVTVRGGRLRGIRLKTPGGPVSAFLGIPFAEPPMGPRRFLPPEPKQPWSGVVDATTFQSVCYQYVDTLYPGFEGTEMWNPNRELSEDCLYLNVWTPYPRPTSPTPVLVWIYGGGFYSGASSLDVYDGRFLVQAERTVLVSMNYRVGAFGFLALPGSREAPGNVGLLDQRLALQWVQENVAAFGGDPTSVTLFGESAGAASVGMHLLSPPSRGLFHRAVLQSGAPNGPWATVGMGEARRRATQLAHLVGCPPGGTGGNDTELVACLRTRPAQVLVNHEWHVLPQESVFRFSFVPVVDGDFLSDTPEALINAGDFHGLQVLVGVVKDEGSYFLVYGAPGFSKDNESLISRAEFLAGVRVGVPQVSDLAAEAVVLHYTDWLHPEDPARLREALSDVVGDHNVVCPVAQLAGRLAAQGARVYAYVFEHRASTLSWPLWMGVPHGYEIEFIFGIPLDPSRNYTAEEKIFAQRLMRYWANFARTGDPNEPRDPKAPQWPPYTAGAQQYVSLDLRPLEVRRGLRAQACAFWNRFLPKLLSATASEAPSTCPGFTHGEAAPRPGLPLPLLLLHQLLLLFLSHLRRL
Text: (§1) Cholinesterase substrate acetylthiocholine (ATCh) and the thiol reagent 5,5′-dithiobis(2-nitrobenzoic acid) (DTNB) for the enzyme activity measurement were purchased from Sigma-Aldrich (St. Louis, MO, USA). The sources of human AChE and BChE were native erythrocytes and plasma, respectively, obtained from the blood of a healthy volunteer and in accordance with the approval of the Ethics Committee of the Institute for Medical Research and Occupational Health (approval number: 100-21/23-6). Erythrocytes and plasma were isolated from the whole blood and prepared according to a previously published procedure. Namely, venous blood was collected into a heparinized tube and centrifuged (at 4 °C, 20 min on 2500 rpm, Eppendorf centrifuge 5702R) to separate plasma from the erythrocytes. Plasma was removed and used as a source of BChE, while erythrocytes were washed twice with the 0.1 M sodium phosphate buffer, pH 7.4, in a volume corresponding to the initial volume of the whole blood. Both plasma and erythrocytes were frozen at −20 °C until use. Quinuclidine compounds were dissolved in dH2O as 10 or 100 mM; exceptionally, 3-hydroxyimino compounds with longer chains (C12−C16) were dissolved in DMSO as 100 mM solutions. Stock solutions were kept at 4 °C until use. Further dilutions were made in distilled water.
(§2) The reversible inhibition experiments followed a previously published procedure. Namely, the enzyme activity was measured in the presence of a wide range of quinuclidine compound concentrations and in the substrate range from 0.1 to 0.5 mM to confirm the type of compound binding. The activity was assayed following the Ellman’s procedure, with the modification in the wavelength used for detection of the TNB anion in the case of AChE activity measurement due to the interference of the hemoglobin, and according to Worek et al.. The assay was performed in 96-well plates on an Infinite M200PRO plate reader (Tecan Austria GmbH, Salzburg, Austria) at 25 °C. Each concentration was tested in triplicate or quadruplicate on each plate. The inhibition mixture contained 0.1 M sodium phosphate buffer, pH 7.4, enzyme (AChE or BChE), quinuclidine compound (0.2–400 μM final), DTNB (0.3 mM final), and ATCh (from 0.1 to 0.5 mM final) to start the reaction. The increase in absorbance was read at 436 nm for AChE and at 412 nm for BChE. The measured activity in the presence of compounds was corrected for the non-enzymatic hydrolysis of substrate ATCh, if detected. The reversible enzyme–quinuclidine complex dissociation constants (the inhibition constants) Ki were evaluated from the effect of the substrate concentration on the degree of inhibition according to the Hunter–Downs equation as described previously, taking into account only quinuclidine concentrations where 20–80% inhibition of the activity was observed.

human BChE = target: T2, human BChE (Homo sapiens, UniProt P06276); experiment: biochemical; conditions: Ki ± standard error; 0.1, 0.2, 0.35 and 0.5 mM substrate ATCh; 25 °C, pH 7.4; read-out: Ki BChE
T2 construct: Plasma was removed and used as a source of BChE; from tissue; host or cells: human blood plasma from a healthy volunteer
T2 sequence (P06276 29-602): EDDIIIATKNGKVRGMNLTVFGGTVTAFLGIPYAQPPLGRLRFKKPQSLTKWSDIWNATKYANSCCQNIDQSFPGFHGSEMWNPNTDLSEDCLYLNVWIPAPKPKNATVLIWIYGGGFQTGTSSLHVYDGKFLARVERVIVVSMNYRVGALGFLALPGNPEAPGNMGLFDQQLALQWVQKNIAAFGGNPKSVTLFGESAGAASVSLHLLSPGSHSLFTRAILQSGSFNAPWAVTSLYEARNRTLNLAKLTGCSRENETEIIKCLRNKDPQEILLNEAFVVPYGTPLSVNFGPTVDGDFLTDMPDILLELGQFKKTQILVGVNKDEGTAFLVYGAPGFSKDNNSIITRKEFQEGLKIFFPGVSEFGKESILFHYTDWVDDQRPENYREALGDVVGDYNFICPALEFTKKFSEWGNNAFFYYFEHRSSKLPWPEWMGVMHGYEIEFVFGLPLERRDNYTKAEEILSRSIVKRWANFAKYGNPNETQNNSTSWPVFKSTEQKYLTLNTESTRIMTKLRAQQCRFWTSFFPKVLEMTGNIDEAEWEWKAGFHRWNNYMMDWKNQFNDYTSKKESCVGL
Text: as §1, §2

SH-SY5Y cells [1] = experiment: Cytotoxicity assay (MTS) on SH-SY5Y; assay type: cell-based; conditions: Homo sapiens
Experimental: (§3) SH-SY5Y cells were grown in DMEM F12 (Sigma-Aldrich, St. Louis, MO, USA) supplemented with 15% (v/v) fetal bovine serum (FBS), 2 mM glutamine, and 1% (v/v) non-essential amino acids (NEAA). HepG2 cells were grown in EMEM supplemented with 10% (v/v) FBS, 2 mM glutamine, and 1% (v/v) non-essential amino acids NEAA. All media and supplements were purchased from Sigma-Aldrich, Steinheim, Germany.
(§4) The procedure followed a previously described protocol.

HepG2 cells [2] = experiment: Cytotoxicity assay (MTS) on HepG2; assay type: cell-based; conditions: Homo sapiens
Experimental: as §3, §4

SH-SY5Y cells [3] = experiment: Cell membrane integrity (LDH release) on SH-SY5Y; assay type: cell-based, human; conditions: 4 h exposure, 12.5–200 µM
Experimental: (§5) Human neuroblastoma SH-SY5Y (ECACC 94030304) and human hepatocyte carcinoma HepG2 (ECACC 85011430) were used to evaluate in vitro dose- and time-dependent different cell effects. The SH-SY5Y cell line was selected as it represents a well-established model for studying neuronal cells, while HepG2 hepatocytes represent a liver model as a major organ participating in the metabolism of diverse compounds [31, 61, 62]. SH-SY5Y cells were grown in DMEM F12 (Sigma-Aldrich, St. Louis, MO, USA) supplemented with 15% (v/v) fetal bovine serum (FBS), 2 mM glutamine, and 1% (v/v) non-essential amino acids (NEAA). HepG2 cells were grown in EMEM supplemented with 10% (v/v) FBS, 2 mM glutamine, and 1% (v/v) non-essential amino acids NEAA. All media and supplements were purchased from Sigma-Aldrich, Steinheim, Germany.
(§6) Cell membrane integrity was determined after 4 h exposure to derivatives 3–5 and 10–12 by measuring the release of the intracellular lactate dehydrogenase (LDH), and the procedure followed a previously described protocol using The CytoTox-ONE™ Homogeneous Membrane Integrity Assay (Promega, Madison, WI, USA). Triton X-100 at a final concentration of 0.18% (v/v) (stock of 9% in water; Sigma-Aldrich, Steinheim, Germany) was used as a positive control to determine the maximal LDH release. Data were taken from at least two independent experiments (each treatment performed in duplicate) and plotted as a percentage of LDH release compared to the determined maximal LDH release, according to the manufacturer’s calculation protocol.

HepG2 cells [4] = experiment: Cell membrane integrity (LDH release) on HepG2; assay type: cell-based, human; conditions: HepG2, 4 h exposure, 12.5–200 µM
Experimental: as §5, §6

SH-SY5Y cells [5] = experiment: Mitochondrial membrane potential (TMRE assay) on SH-SY5Y; assay type: cell-based, human; conditions: 4 h exposure, LOAEL concentrations
Experimental: as §5
(§7) Mitochondrial membrane potential (ΔΨm) was determined using a cell-permeable, potential-sensitive cationic dye, tetramethylrhodamine ethyl ester perchlorate (TMRE, Cell Signaling Technology Europe, Leiden, The Netherlands). Cells were exposed for 4 h to derivatives 3–5 and 10–12. The procedure followed a previously described protocol. A concentration of 50 µM carbonyl cyanide 3-chlorophenylhydrazone (CCCP, Cell Signaling Technology Europe, Leiden, The Netherlands) was used as a positive control. Data were evaluated from at least three independent experiments (performed in duplicate) and presented as a normalized signal to the untreated control, according to the manufacturer’s calculation protocol.

HepG2 cells [6] = experiment: Mitochondrial membrane potential (TMRE assay) on HepG2; assay type: cell-based, human; conditions: HepG2, 4 h exposure, LOAEL concentrations
Experimental: as §5, §7

caspase 8 = experiment: Caspase 8 activity in SH-SY5Y (multiplex activity assay kit); assay type: cell-based, human; conditions: 4 h treatment, LOAEL concentrations
Experimental: as §3
Caspases (cysteine-aspartic proteases) caspase 3, caspase 8, and caspase 9 were simultaneously analyzed in cells using specific substrate and fluorogenic indicators from the Caspase-3, Caspase-8, and Caspase-9 Multiplex Activity Assay Kit (Abcam, Cambridge, UK). […] The procedure followed a previously described protocol. […] Data were evaluated from at least three independent experiments (performed in duplicate or triplicate), according to the manufacturer’s assay kit calculation protocol, and presented as a normalized signal to the untreated control.

SH-SY5Y cells [7] = conditions: cited from earlier work
[8] = 4 h exposure, read-out: IC50 ± SE SH-SY5Y 4 h
[9] = read-out: IC50 ± SE SH-SY5Y 1 h, 1 h exposure
[10] = HepG2, read-out: IC50 ± SE HepG2 1 h, 1 h exposure
[11] = HepG2, 4 h exposure, read-out: IC50 ± SE HepG2 4 h
[12] = HepG2, 24 h exposure, read-out: IC50 ± SE HepG2 24 h
[13] = 24 h exposure, read-out: IC50 ± SE SH-SY5Y 24 h

Compound | Ki (human AChE) [µM] | Ki (AChE)/Ki (BChE) (human AChE) | Ki (human BChE) [µM] | IC50 (SH-SY5Y cells [1]; [8]) [µM] | IC50 (SH-SY5Y cells [1]; [9]) [µM] | IC50 (HepG2 cells [2]; [10]) [µM] | IC50 (HepG2 cells [2]; [11]) [µM] | IC50 (HepG2 cells [2]; [12]) [µM] | LDH release (SH-SY5Y cells [3]) | LDH release (HepG2 cells [4]) | Mitochondrial membrane potential (ΔΨm) (SH-SY5Y cells [5]) | Mitochondrial membrane potential (ΔΨm) (HepG2 cells [6]) | Caspase 8 activation (caspase 8) | IC50 (SH-SY5Y cells [7]; [13]) [µM] | IC50 (SH-SY5Y cells [1]; [13]) [µM] | IC50 (SH-SY5Y cells [7]; 24 h exposure, controls, read-out: IC50 ± SE SH-SY5Y 24 h) [µM] | IC50 (SH-SY5Y cells [7]; read-out: IC50 ± SE SH-SY5Y 1 h, 1 h exposure, controls) [µM]
CCCCCCCCCCCC[N+]12CCC(CC1)/C(=N\O)C2 [Compound 10] | 14.3 ± 1.8 | 2.6 | 5.4 ± 0.8 | 174 ± 1 | 208 ± 3 | 218 ± 1 | 81 ± 1 | 15 ± 1 | strongest effect; also recorded: significant LDH release | significant LDH release | decrease in the mitochondrial membrane potential | decrease in the mitochondrial membrane potential | significant activation | 147 ± 1 | – | – | –
CCCCCCCCCCCCCC[N+]12CCC(CC1)/C(=N\O)C2 [Compound 11] | 7 ± 0.9 | 0.8 | 8.8 ± 1 | 83 ± 3 | 125 ± 2 | 37 ± 1 | 18 ± 1 | 11 ± 1 | strongest effect; also recorded: significant LDH release | significant LDH release | decrease in the mitochondrial membrane potential | decrease in the mitochondrial membrane potential | significant activation | – | 60 ± 1 | – | –
CCCCCCCCCCCCCCCC[N+]12CCC(CC1)/C(=N\O)C2 [Compound 12] | 19 ± 1.6 | 0.4 | 48.6 ± 3.8 | 78 ± 1 | 89 ± 1 | 40 ± 1 | 20 ± 1 | 7 ± 1 | strongest effect; also recorded: significant LDH release | significant LDH release | decrease in the mitochondrial membrane potential | decrease in the mitochondrial membrane potential | significant activation | – | 54 ± 1 | – | –
CN[C@@H]1C[C@H]2O[C@@](C)([C@@H]1OC)n1c3ccccc3c3c4c(c5c6ccccc6n2c5c31)C(=O)NC4 [SS, staurosporine] | – | – | – | – | – | – | – | – | – | – | – | – | – | – | – | 0.12 ± 0.01 | ≥ 4

Source: paper PMC10778980, “Profiling Novel Quinuclidine-Based Derivatives as Potential Anticholinesterase Drugs: Enzyme Inhibition and Effects on Cell Viability” (International Journal of Molecular Sciences, 2023)
